Measurements from patent US20240317772A1, “SESQUITERPENE DERIVATIVE AND PHARMACEUTICAL COMPOSITION THEREOF, AND THEIR PREPARATION METHODS AND USE” (TIANJIN JIKUN MEDICAL TECHNOLOGY CO., LTD., priority 2022, published 2024).

Key:
Assay type in all cases: in vivo
[1] = test system: Tumor cells H22; experiment: Anti-tumor effect in H22 tumor-bearing mice (alone and combined with PD-1 monoclonal antibody); details: female C57BL/6 mice; by tumor weight vs control group; compounds 150 mg/kg orally every day; PD-1 monoclonal antibody 10 mg/kg intraperitoneally every three days; combination: both
Text: (§1) Tumor cells B16F10, LLC, PAN02, H22, CT26, MFC, and GL261 (purchased from Biological Industries) in good growth status were collected, separately washed twice with 1×PBS, and a total number of the cells was counted with a cell counter, and a cell solution was separately diluted with 1×PBS to obtain a cell suspension of 1×10^7 cells/mL. The mice used in this experiment were purchased from Beijing Vital River Laboratory (Beijing, China). The above different types of tumor cells were inoculated into different types of mice to produce corresponding tumor-bearing mice, and the correspondences are as follows. Tumor cell B16F10 corresponds to female mice C57BL/6 aged 6-8 weeks; Tumor cell LLC corresponds to female mice Balb/c aged 6-8 weeks; Tumor cell PAN02 corresponds to female mice C57BL/6J aged 6-8 weeks; Tumor cell H22 corresponds to female mice C57BL/6 aged 6-8 weeks; Tumor cell CT26 corresponds to female mice Balb/c aged 6-8 weeks; Tumor cell MFC corresponds to female mice BALB/c-nu/nu aged 6-8 weeks; and Tumor cell GL261 corresponds to female mice C57BL/6 aged 6-8 weeks. […] After the experiment was completed, the mice were euthanized, tumor tissues thereof were collected, and volume and weight of the tumor tissues were tested to calculate a tumor inhibition rate. Tumor inhibition rate=(1-tumor weight of treatment group/tumor weight of control group)×100%

[2] = test system: Tumor cells MFC; experiment: Anti-tumor effect in MFC tumor-bearing mice (alone and combined with PD-1 monoclonal antibody); details: female BALB/c-nu/nu mice; by tumor weight vs control group; compounds 150 mg/kg orally every day; PD-1 monoclonal antibody 10 mg/kg intraperitoneally every three days; combination: both
Text: as §1

[3] = test system: Tumor cells PAN02; experiment: Anti-tumor effect in PAN02 tumor-bearing mice (alone and combined with PD-1 monoclonal antibody); details: for Tumor inhibition rate PAN02: female C57BL/6J mice, by tumor weight vs control group, compounds 150 mg/kg orally every day, PD-1 monoclonal antibody 10 mg/kg intraperitoneally every three days, combination: both
Text: as §1

[4] = test system: Tumor cells B16F10; experiment: Anti-tumor effect in B16F10 tumor-bearing mice (alone and combined with PD-1 monoclonal antibody); details: female C57BL/6 mice; by tumor weight vs control group; compounds 150 mg/kg orally every day; PD-1 monoclonal antibody 10 mg/kg intraperitoneally every three days; combination: both
Text: as §1

[5] = test system: Tumor cells LLC; experiment: Anti-tumor effect in LLC tumor-bearing mice (alone and combined with PD-1 monoclonal antibody); details: female Balb/c mice; by tumor weight vs control group; compounds 150 mg/kg orally every day; PD-1 monoclonal antibody 10 mg/kg intraperitoneally every three days; combination: both
Text: as §1

[6] = test system: Tumor cells CT26; experiment: Anti-tumor effect in CT26 tumor-bearing mice (alone and combined with PD-1 monoclonal antibody); details: female Balb/c mice; by tumor weight vs control group; compounds 150 mg/kg orally every day; PD-1 monoclonal antibody 10 mg/kg intraperitoneally every three days; combination: both
Text: as §1

[7] = test system: Tumor cells GL261; experiment: Anti-tumor effect in GL261 tumor-bearing mice (alone and combined with PD-1 monoclonal antibody); details: for Tumor inhibition rate GL261: female C57BL/6 mice, by tumor weight vs control group, compounds 150 mg/kg orally every day, PD-1 monoclonal antibody 10 mg/kg intraperitoneally every three days, combination: both
Text: as §1

[8] = combined administration with the PD-1 monoclonal antibody (text summary of Table 1)

In the case of `CN(CCO)CC1C(=O)O[C@@H]2C[C@@]3(C)CC[C@@H](O)[C@]4(CO4)[C@@H]3C[C@H]12.O=C(O)/C=C/C(=O)O` (stereo partly drawn) [Compound 4], the “Tumor inhibition rate H22” value [1] is reported as 26%, the “Tumor inhibition rate MFC” value [2] is reported as 27% and the “Tumor inhibition rate PAN02” value [3] is reported as 22%. For the same compound, the “Tumor inhibition rate B16F10” value [4] was 23%, the “Tumor inhibition rate LLC” value [5] was 24% and the “Tumor inhibition rate CT26” value [6] was 31%. For the same compound, the “Tumor inhibition rate GL261” value [7] was 23%.
For `C[C@]12CC[C@@H](O)[C@]3(CO3)[C@@H]1C[C@@H]1C(CN(CCO)CCO)C(=O)O[C@@H]1C2.O=C(O)/C=C/C(=O)O` (stereo partly drawn) [Compound 5], the “Tumor inhibition rate H22” value [1] was 31%, the “Tumor inhibition rate MFC” value [2] was 44% and the “Tumor inhibition rate PAN02” value [3] was 19%. For the same compound, the “Tumor inhibition rate B16F10” value [4] was 24%, the “Tumor inhibition rate LLC” value [5] was 26% and the “Tumor inhibition rate CT26” value [6] was 52%. The “Tumor inhibition rate GL261” value [7] was 19%.
For `CN(CCCO)CC1C(=O)O[C@@H]2C[C@@]3(C)CC[C@@H](O)[C@]4(CO4)[C@@H]3C[C@H]12.O=C(O)/C=C/C(=O)O` (stereo partly drawn) [Compound 6], the “Tumor inhibition rate H22” value [1] was 39%, the “Tumor inhibition rate MFC” value [2] was 52% and the “tumor inhibition rate, PAN02 cells” value [3, 8] was “up to 89%”. The “Tumor inhibition rate PAN02” value [3] was 31%, the “Tumor inhibition rate B16F10” value [4] was 31% and the “Tumor inhibition rate LLC” value [5] was 29%. The “Tumor inhibition rate CT26” value [6] was 41%, the “tumor inhibition rate, GL261 cells” value [7, 8] was “up to 89%” and the “Tumor inhibition rate GL261” value [7] was 29%.
For `CN(C)CC1C(=O)O[C@@H]2C[C@@]3(C)CC[C@@H](O)[C@]4(CO4)[C@@H]3C[C@H]12.O=C(O)/C=C/C(=O)O` (stereo partly drawn) [Control compound 7, reference compound], the “Tumor inhibition rate H22” value [1] was 52%, the “Tumor inhibition rate MFC” value [2] was 38% and the “Tumor inhibition rate PAN02” value [3] was 43%. For the same compound, the “Tumor inhibition rate B16F10” value [4] was 41%, the “Tumor inhibition rate LLC” value [5] was 44% and the “Tumor inhibition rate CT26” value [6] was 60%. For the same compound, the “Tumor inhibition rate GL261” value [7] was 39%.
